The record followed here is patent publication US8076487B2, “Pyridone derivative and herbicide” (Kumiai Chemical Industry Co., Ltd., priority 2006, dated 2011).

Holding throughout (assay type): in vivo
Assay [1] has as its system velvetleaf (Abutilon theophrasti medicus). Description: Test Example 3: herbicidal effect by application to upland field (foliage treatment). Conditions: 14th day after application; for herbicidal effect, Velvetleaf: foliage treatment, 1,000 g active ingredient per 1 hectare, greenhouse; for herbicidal effect (index), Velvetleaf: foliage treatment, plants grown two weeks, 1,000 g active ingredient per hectare. The procedure, abridged:
(§1)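 Plants were sown in field soil and raised in a greenhouse for two weeks before foliar spraying. A water-diluted wettable powder was applied at 1,000 g active ingredient per hectare in 1,000 liters per hectare. Herbicidal effect was scored on a standard scale 14 days later.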

The test system of assay [2] is slender amaranth (Amaranthus viridis L.). The description is as above. Conditions: 14th day after application; for herbicidal effect, Slender Amaranth: foliage treatment, 1,000 g active ingredient per 1 hectare, greenhouse; for herbicidal effect (index), Slender Amaranth: foliage treatment, plants grown two weeks, 1,000 g active ingredient per hectare. The procedure, abridged: as §1

Assay [3] has as its system barnyardgrass (Echinochloa crus-galli (L.) P. Beauv. var. crus-galli). The assay is described as above. Conditions: 14th day after application; for herbicidal effect, Barnyardgrass: foliage treatment, 1,000 g active ingredient per 1 hectare, greenhouse; for herbicidal effect (index), Barnyardgrass: foliage treatment, plants grown two weeks, 1,000 g active ingredient per hectare. The procedure, abridged: as §1

Assay [4] has as its system green foxtail (Setaria viridis (L.) P. Beauv.). The description is as above. As to conditions: 14th day after application; for herbicidal effect, Green Foxtail: foliage treatment, 1,000 g active ingredient per 1 hectare, greenhouse; for herbicidal effect (index), Green Foxtail: foliage treatment, plants grown two weeks, 1,000 g active ingredient per hectare. The procedure, abridged:
as §1

Assay [5] relates to velvetleaf (Abutilon theophrasti medicus). Description: Test Example 2: herbicidal effect by soil application to upland field. As to conditions: soil surface spray, upland field soil, 1,000 g active ingredient per hectare, 21st day after application. The procedure, abridged: (§2)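 Using a small sprayer, we treat the soil surface of pots just after sowing and covering seeds. The aqueous wettable powder supplies 1,000 g a.i./ha in 1,000 L water/ha; after greenhouse growth, injury is scored on day 21 using a standard rating.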

For assay [6], the system named is slender amaranth (Amaranthus viridis L.). The assay is described as above. Conditions: soil surface spray, upland field soil, 1,000 g active ingredient per hectare, 21st day after application. The procedure, abridged:
as §2

The subject of assay [7] is barnyardgrass (Echinochloa crus-galli (L.) P. Beauv. var. crus-galli). Described as above. As to conditions: soil surface spray, upland field soil, 1,000 g active ingredient per hectare, 21st day after application. The procedure, abridged:
as §2

Assay [8] relates to green foxtail (Setaria viridis (L.) P. Beauv.). Described as above. As to conditions: soil surface spray, upland field soil, 1,000 g active ingredient per hectare, 21st day after application. The essentials: as §2
Assay [9] concerns Japanese bulrush (Scirpus juncoides Roxb.). Description: Test Example 1: herbicidal effect by soil application to paddy field. Conditions: paddy field soil application; active ingredient 1,000 g per 1 hectare; wettable powder added dropwise to water surface the day after sowing; examined on the 21st day after application. The essentials: (§3)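 Plants were sown in flooded (3 cm) paddy soil and evaluated for herbicidal effect 21 days after soil application in a greenhouse.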

Assay [10] relates to early watergrass (Echinochloa oryzicola Vasing). Described as above. As to conditions: paddy field soil application; active ingredient 1,000 g per 1 hectare; wettable powder added dropwise to water surface the day after sowing; examined on the 21st day after application. The procedure, abridged:
as §3

Assay [11] deals with heartshape false pickerelweed (Monochoria vaginalis (Burm.f.) C.Presl). The description is as above. Conditions: paddy field soil application; active ingredient 1,000 g per 1 hectare; wettable powder added dropwise to water surface the day after sowing; examined on the 21st day after application. The essentials: as §3

For the compound `CCCCCCn1c(C(F)(F)F)ccc(C(=O)C2=C(O)C3CCC(C3)C2=O)c1=O` (centres unmarked) [III-10], the “herbicidal effect, Velvetleaf” value in assay [1] was 5 (90% or more of herbicidal effect and crop phytotoxicity). In assay [2], the “herbicidal effect, Slender Amaranth” value was 4 (70 to less than 90% of herbicidal effect and crop phytotoxicity). For the same compound, the “herbicidal effect, Barnyardgrass” value in [3] was 5 (90% or more of herbicidal effect and crop phytotoxicity). Also, the “herbicidal effect, Green Foxtail” value in assay [4] was 5 (90% or more of herbicidal effect and crop phytotoxicity). For the same compound, the “herbicidal effect (index), Velvetleaf” value in assay [5] is 5 (90% or more of herbicidal effect and crop phytotoxicity). In [6], the “herbicidal effect (index), Slender Amaranth” value is 5 (90% or more of herbicidal effect and crop phytotoxicity). In assay [7], the “herbicidal effect (index), Barnyardgrass” value was 5 (90% or more of herbicidal effect and crop phytotoxicity). Moreover, the “herbicidal effect (index), Green Foxtail” value in [8] was 5 (90% or more of herbicidal effect and crop phytotoxicity). Also, the “herbicidal effect, Scirpus juncoides Roxb.” value in assay [9] is 5 (90% or more of herbicidal effect and crop phytotoxicity). Moreover, in assay [10], the “herbicidal effect, Echinochloa oryzicola Vasing” value is 5 (90% or more of herbicidal effect and crop phytotoxicity). Besides, the “herbicidal effect, Monochoria vaginalis (Burm. f.) C. Presl” value (“herbicidal effect, Monochoria vaginalis” for short) in [11] is 5 (90% or more of herbicidal effect and crop phytotoxicity).
With `O=C1CCCC(O)=C1C(=O)c1cc(Br)c(C(F)F)n(-c2ccccc2)c1=O` [I-224], in assay [1], the “herbicidal effect, Velvetleaf” value was 5 (90% or more of herbicidal effect and crop phytotoxicity). Besides, the “herbicidal effect, Slender Amaranth” value in assay [2] was 5 (90% or more of herbicidal effect and crop phytotoxicity). Besides, the “herbicidal effect, Barnyardgrass” value in assay [3] is 5 (90% or more of herbicidal effect and crop phytotoxicity). The “herbicidal effect, Green Foxtail” value in assay [4] is 5 (90% or more of herbicidal effect and crop phytotoxicity). In assay [5], the “herbicidal effect (index), Velvetleaf” value is 5 (90% or more of herbicidal effect and crop phytotoxicity). For the same compound, the “herbicidal effect (index), Slender Amaranth” value in assay [6] was 5 (90% or more of herbicidal effect and crop phytotoxicity). Besides, in assay [7], the “herbicidal effect (index), Barnyardgrass” value was 5 (90% or more of herbicidal effect and crop phytotoxicity). The “herbicidal effect (index), Green Foxtail” value in assay [8] was 5 (90% or more of herbicidal effect and crop phytotoxicity). Moreover, the “herbicidal effect, Scirpus juncoides Roxb.” value in assay [9] was 5 (90% or more of herbicidal effect and crop phytotoxicity). In addition, the “herbicidal effect, Echinochloa oryzicola Vasing” value in assay [10] is 5 (90% or more of herbicidal effect and crop phytotoxicity). The “herbicidal effect, Monochoria vaginalis” value in assay [11] is 5 (90% or more of herbicidal effect and crop phytotoxicity).
For the compound `COCCn1c(C(F)(F)F)ccc(C(=O)C2=C(O)CCCC2=O)c1=O` [I-31], the “herbicidal effect (index), Velvetleaf” value is 5 (90% or more of herbicidal effect and crop phytotoxicity) in assay [1]; 5 (90% or more of herbicidal effect and crop phytotoxicity) in assay [5]. Moreover, the “herbicidal effect (index), Slender Amaranth” value in [2] was 5 (90% or more of herbicidal effect and crop phytotoxicity); in assay [6], 5 (90% or more of herbicidal effect and crop phytotoxicity). Moreover, the “herbicidal effect (index), Barnyardgrass” value is 5 (90% or more of herbicidal effect and crop phytotoxicity) in assay [3]; 5 (90% or more of herbicidal effect and crop phytotoxicity) in assay [7]. Also, the “herbicidal effect (index), Green Foxtail” value in assay [4] was 5 (90% or more of herbicidal effect and crop phytotoxicity); in assay [8], 5 (90% or more of herbicidal effect and crop phytotoxicity). The “herbicidal effect, Scirpus juncoides Roxb.” value in [9] is 5 (90% or more of herbicidal effect and crop phytotoxicity). The “herbicidal effect, Echinochloa oryzicola Vasing” value in [10] is 5 (90% or more of herbicidal effect and crop phytotoxicity). Further, the “herbicidal effect, Monochoria vaginalis” value in assay [11] was 5 (90% or more of herbicidal effect and crop phytotoxicity).
Regarding `COc1cc(OC)cc(-n2c(C(F)(F)F)ccc(C(=O)C3=C(O)CCCC3=O)c2=O)c1` [I-101], the “herbicidal effect (index), Velvetleaf” value in assay [1] was 5 (90% or more of herbicidal effect and crop phytotoxicity); in assay [5], 5 (90% or more of herbicidal effect and crop phytotoxicity). Also, the “herbicidal effect (index), Slender Amaranth” value was 5 (90% or more of herbicidal effect and crop phytotoxicity) in assay [2]; 5 (90% or more of herbicidal effect and crop phytotoxicity) in [6]. Moreover, the “herbicidal effect (index), Barnyardgrass” value in assay [3] was 5 (90% or more of herbicidal effect and crop phytotoxicity); in [7] it was 5 (90% or more of herbicidal effect and crop phytotoxicity). Moreover, the “herbicidal effect (index), Green Foxtail” value is 5 (90% or more of herbicidal effect and crop phytotoxicity) in assay [4]; 5 (90% or more of herbicidal effect and crop phytotoxicity) in assay [8]. Also, in [9], the “herbicidal effect, Scirpus juncoides Roxb.” value is 5 (90% or more of herbicidal effect and crop phytotoxicity). Besides, in assay [10], the “herbicidal effect, Echinochloa oryzicola Vasing” value was 5 (90% or more of herbicidal effect and crop phytotoxicity). Besides, the “herbicidal effect, Monochoria vaginalis” value in assay [11] is 5 (90% or more of herbicidal effect and crop phytotoxicity).
Turning to `CSCn1c(C(F)(F)F)ccc(C(=O)C2=C(O)CCCC2=O)c1=O` [I-46], the “herbicidal effect (index), Velvetleaf” value is 5 (90% or more of herbicidal effect and crop phytotoxicity) in [1]; 5 (90% or more of herbicidal effect and crop phytotoxicity) in [5]. For the same compound, the “herbicidal effect (index), Slender Amaranth” value was 5 (90% or more of herbicidal effect and crop phytotoxicity) in assay [2]; 5 (90% or more of herbicidal effect and crop phytotoxicity) in assay [6]. Further, the “herbicidal effect (index), Barnyardgrass” value was 5 (90% or more of herbicidal effect and crop phytotoxicity) in assay [3]; 5 (90% or more of herbicidal effect and crop phytotoxicity) in assay [7]. Further, the “herbicidal effect (index), Green Foxtail” value in assay [4] was 3 (50 to less than 70% of herbicidal effect and crop phytotoxicity); in [8], 3 (50 to less than 70% of herbicidal effect and crop phytotoxicity). Moreover, in [9], the “herbicidal effect, Scirpus juncoides Roxb.” value is 5 (90% or more of herbicidal effect and crop phytotoxicity). In addition, the “herbicidal effect, Echinochloa oryzicola Vasing” value in assay [10] is 5 (90% or more of herbicidal effect and crop phytotoxicity). In addition, in assay [11], the “herbicidal effect, Monochoria vaginalis” value was 5 (90% or more of herbicidal effect and crop phytotoxicity).
For the compound `CCCNn1c(C(F)(F)F)ccc(C(=O)C2=C(O)CCCC2=O)c1=O` [I-159], the “herbicidal effect, Velvetleaf” value in assay [1] was 5 (90% or more of herbicidal effect and crop phytotoxicity). For the same compound, the “herbicidal effect, Slender Amaranth” value in assay [2] was 5 (90% or more of herbicidal effect and crop phytotoxicity). In addition, the “herbicidal effect, Barnyardgrass” value in [3] is 5 (90% or more of herbicidal effect and crop phytotoxicity). The “herbicidal effect, Green Foxtail” value in assay [4] is 5 (90% or more of herbicidal effect and crop phytotoxicity). In addition, in assay [5], the “herbicidal effect (index), Velvetleaf” value was 5 (90% or more of herbicidal effect and crop phytotoxicity). Also, the “herbicidal effect (index), Slender Amaranth” value in assay [6] was 5 (90% or more of herbicidal effect and crop phytotoxicity). Moreover, the “herbicidal effect (index), Barnyardgrass” value in [7] is 5 (90% or more of herbicidal effect and crop phytotoxicity). Besides, in [8], the “herbicidal effect (index), Green Foxtail” value is 5 (90% or more of herbicidal effect and crop phytotoxicity). Further, the “herbicidal effect, Scirpus juncoides Roxb.” value in assay [9] is 5 (90% or more of herbicidal effect and crop phytotoxicity). Moreover, the “herbicidal effect, Echinochloa oryzicola Vasing” value in [10] is 5 (90% or more of herbicidal effect and crop phytotoxicity). In addition, in assay [11], the “herbicidal effect, Monochoria vaginalis” value is 5 (90% or more of herbicidal effect and crop phytotoxicity).
On to `CCC(C)n1c(C(F)(F)F)ccc(C(=O)c2cnn(C)c2O)c1=O` (centres unmarked) [IV-8], for which the “herbicidal effect, Velvetleaf” value in assay [1] was 5 (90% or more of herbicidal effect and crop phytotoxicity). Moreover, in [2], the “herbicidal effect, Slender Amaranth” value was 5 (90% or more of herbicidal effect and crop phytotoxicity). Besides, the “herbicidal effect, Barnyardgrass” value in assay [3] is 5 (90% or more of herbicidal effect and crop phytotoxicity). Further, in assay [4], the “herbicidal effect, Green Foxtail” value is 4 (70 to less than 90% of herbicidal effect and crop phytotoxicity). Besides, the “herbicidal effect (index), Velvetleaf” value in [5] is 5 (90% or more of herbicidal effect and crop phytotoxicity). In [6], the “herbicidal effect (index), Slender Amaranth” value was 5 (90% or more of herbicidal effect and crop phytotoxicity). Besides, the “herbicidal effect (index), Barnyardgrass” value in [7] is 5 (90% or more of herbicidal effect and crop phytotoxicity). Also, in [8], the “herbicidal effect (index), Green Foxtail” value is 5 (90% or more of herbicidal effect and crop phytotoxicity). Besides, the “herbicidal effect, Scirpus juncoides Roxb.” value in assay [9] was 5 (90% or more of herbicidal effect and crop phytotoxicity). Moreover, in assay [10], the “herbicidal effect, Echinochloa oryzicola Vasing” value was 5 (90% or more of herbicidal effect and crop phytotoxicity). The “herbicidal effect, Monochoria vaginalis” value in [11] is 5 (90% or more of herbicidal effect and crop phytotoxicity).
